From patent US20050070606A1, “Pharmaceutical agent for mitochondrial disorders” (Ajinomoto Co., Inc., priority 2002, published 2005)

Key:
[1] = test system: mRNAs of the proteins involved in the TCA cycle of liver mitochondria and the ATP generation in the electron transfer system; experiment: Expression of the genes for mitochondrial ATP generation-associated proteins (Taqman-PCR) in liver of rats after partial 70% hepatectomy; format: in vivo, rat; settings: male F344 rats after partial 70% hepatectomy; L-alanine 2 g/10 ml/kg orally 18 and 21 hours after hepatectomy; liver at 24 hours; compared with the non-administered group; FIG. 1
Procedure: Male F344/DvCrj (Fischer) rats (age 6 weeks and body weight of 120 g) were preliminarily fed with CRF-1 (Oriental Yeast) and water for 6 weeks. Subsequently, the rats were divided in two groups of equal body weight. According to the Higgins-Anderson method (see Higgins, G. M. and Anderson, R. M., 1931, Arch. Pathol. 12: 186-191), partial 70% hepatectomy (left lobe, intermediate lobe) was performed. 18 and 21 hours after the partial hepatectomy, L-alanine at 2 g/10 ml/kg body weight in aqueous 0.3% carboxymethyl cellulose solution was administered orally (group 1), while only the aqueous 0.3% carboxymethyl cellulose solution was administered to the control group (group 2). 24 hours after the partial hepatectomy, anatomy was performed. The rats were killed by exsanguination under anesthesia and then the liver was resected and weighed. Subsequently, the liver was frozen and stored for assaying mRNA expression by the Taqman-PCR method.
To homogenize the liver, 10 ml ISOGEN (Nippon Gene) was added per 1 g of rat liver. […]
The Taqman PCR reactions were performed in duplicate to calculate the cycle time (CT) exceeding the threshold. […] By the following formula, the relative expression level was determined: Relative expression level=2^(30-CT sample)
Further, the relative value of the expression level of each gene was determined when the relative expression level of β-actin was defined as 1000.

[2] = biological target: T1, COX (cytochrome C oxidase) (Rattus norvegicus, UniProt P00406+P05503); experiment: Assaying COX (cytochrome C oxidase) activity in liver mitochondrial suspension; format: biochemical; settings: rat liver mitochondria 2.5 μg, reduced cytochrome c, FIG. 3
T1 construct: from tissue; host or cells: mitochondrial suspension (liver according to the earlier reading)
T1 sequence (P00406 whole entry, other chains not shown): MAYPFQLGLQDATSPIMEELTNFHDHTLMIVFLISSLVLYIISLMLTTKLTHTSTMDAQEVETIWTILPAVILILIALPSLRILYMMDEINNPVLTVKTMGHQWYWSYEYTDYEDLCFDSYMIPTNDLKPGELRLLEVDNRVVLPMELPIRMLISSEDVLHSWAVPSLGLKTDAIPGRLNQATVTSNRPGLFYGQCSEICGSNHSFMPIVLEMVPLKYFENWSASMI
Procedure: As described in Example 2, a mitochondrial suspension was prepared and adjusted to 0.1 mg/ml. 25 μl (2.5 μg) of mitochondria was blended with 950 μl of an assay buffer (10 mM Tris-HCl, pH 7.0, 120 mM KCl), to which various concentrations of L-alanine were added. 50 μl of cytochrome c (0.22 mM) reduced with 10 mg/ml sodium hydroxysulfite was added, and the resulting mixture was inversed and mixed together to start reaction. Immediately, the absorbance (550 nm) was counted continuously for one minute with a spectrophotometer, to record the decrease of the absorbance.

[3] = test system: mitochondrial membrane potential; experiment: Assaying mitochondrial membrane potential (JC-1 fluorescence) in liver mitochondrial suspension; format: biochemical; settings: rat liver mitochondria 2 μg; various concentrations of L-alanine; excitation 490 nm, emission 590 nm; FIG. 2
Procedure: A male SD (IGS) rat of age 8 weeks was killed by exsanguination under ether anesthesia and then the liver was resected and washed twice with 1×Extraction Buffer A (10 mM HEPES (2-[4-(2-hydroxyethyl)-1-piperazinyl]ethanesulfonic acid, pH 7.5, 200 mM mannitol, 70 mM sucrose, 1 mM EGTA (ethylene glycol bis(β-aminoethyl ether)-N, N,N,N-tetraacetic acid). The liver was subsequently cut into a piece of about 100 mg and weighed, which was then cut into smaller pieces in a 5-ml tube.
A 10-fold volume of 1×Extraction Buffer A (containing 2 mg/ml albumin) was added to the tube and the liver was homogenized at a low speed on ice (15 seconds). The resulting homogenate was transferred into an Eppendorf tube for centrifugation at 600 g at 4° C. for 5 minutes. The supernatant was transferred to a new tube for centrifugation at 11,000 g and 4° C. for 10 minutes. After the supernatant was discarded, the precipitate was suspended in a 10-fold volume of 1×Extraction Buffer A. The procedure from centrifugation at 600 g and 4° C. for 5 minutes to centrifugation at 11,000 g and 4° C. for 10 minutes was repeated. […]
The resulting suspension was defined as the mitochondrial suspension for the following experiments. […] For assaying fluorescence intensity (excitation at 490 nm; emission at 590 nm), 2 μl of JC-1 (1 μg/ml) was added and incubated at ambient temperature for 7 minutes.

concentration from which COX activity was increased ([2]; absorbance at 550 nm): ≥ 2.5 mM
SMILES: C[C@H](N)C(=O)O [L-alanine]
mRNAs of the proteins involved in the TCA cycle of liver mitochondria and the ATP generation in the electron transfer system [1]: significantly increased | COX activity ([2]; decrease of absorbance at 550 nm for one minute, various concentrations of L-alanine): increased the COX activity in a concentration-dependent manner | fluorescence intensity of JC-1 (mitochondrial membrane potential) [3]: increased in an L-alanine concentration-dependent manner
